Assay results reported in ChEMBL document CHEMBL4138123, “Design, synthesis and biological evaluation of novel pyrazolochalcones as potential modulators of PI3K/Akt/mTOR pathway and inducers of apoptosis in breast cancer cells” (Eur J Med Chem, 2017).

Columns and labels:
Type in all cases: functional
NCI-H522 [1] = assay: Cytotoxicity against human NCI-H522 cells assessed as cell growth at 0.1 uM after 48 hrs by sulforhodamine B assay relative to control; details: NCI-H522, 48 h, read-out: Activity
PC-3 = assay: Cytotoxicity against human PC3 cells assessed as cell growth at 100 uM after 48 hrs by sulforhodamine B assay relative to control; details: PC-3, 48 h, read-out: Activity
NCI-H226 [2] = assay: Cytotoxicity against human NCI-H226 cells assessed as cell growth at 0.1 uM after 48 hrs by sulforhodamine B assay relative to control; details: NCI-H226, 48 h, read-out: Activity
MDA-MB-435 [3] = assay: Cytotoxicity against human MDA-MB-435 cells assessed as cell growth at 0.01 uM after 48 hrs by sulforhodamine B assay relative to control; details: MDA-MB-435, 48 h, read-out: Activity
T47D = assay: Cytotoxicity against human T47D cells assessed as cell growth at 0.01 uM after 48 hrs by sulforhodamine B assay relative to control; details: read-out: Activity
NCI-H322M = assay: Cytotoxicity against human NCI-H322M cells assessed as cell growth at 0.01 uM after 48 hrs by sulforhodamine B assay relative to control; details: read-out: Activity
KM12 = assay: Cytotoxicity against human KM12 cells assessed as growth inhibition after 48 hrs by sulforhodamine B assay; details: KM12, 48 h
K562 = assay: Cytotoxicity against human K562 cells assessed as cell growth at 0.01 uM after 48 hrs by sulforhodamine B assay relative to control; details: K562, 48 h, read-out: Activity
UACC-62 = assay: Cytotoxicity against human UACC62 cells assessed as growth inhibition after 48 hrs by sulforhodamine B assay; details: UACC-62, 48 h
TK-10 [4] = assay: Cytotoxicity against human TK10 cells assessed as cell growth at 0.01 uM after 48 hrs by sulforhodamine B assay relative to control; details: TK-10, 48 h, read-out: Activity
MDA-MB-435 [5] = assay: Cytotoxicity against human MDA-MB-435 cells assessed as cell growth at 1 uM after 48 hrs by sulforhodamine B assay relative to control; details: MDA-MB-435, 48 h, read-out: Activity
Malme-3M = assay: Cytotoxicity against human MALME-3M cells assessed as cell growth at 10 uM after 48 hrs by sulforhodamine B assay relative to control; details: read-out: Activity
OVCAR-3 = assay: Cytotoxicity against human OVCAR3 cells assessed as growth inhibition after 48 hrs by sulforhodamine B assay; details: OVCAR-3, 48 h
M14 = assay: Cytotoxicity against human M14 cells assessed as growth inhibition after 48 hrs by sulforhodamine B assay; details: M14, 48 h
OVCAR-8 = assay: Cytotoxicity against human OVCAR8 cells assessed as cell growth at 0.01 uM after 48 hrs by sulforhodamine B assay relative to control; details: OVCAR-8, 48 h, read-out: Activity
NCI-H522 [6] = assay: Cytotoxicity against human NCI-H522 cells assessed as cell growth at 10 uM after 48 hrs by sulforhodamine B assay relative to control; details: NCI-H522, 48 h, read-out: Activity
TK-10 [7] = assay: Cytotoxicity against human TK10 cells assessed as growth inhibition after 48 hrs by sulforhodamine B assay; details: TK-10, 48 h
SK-MEL-5 = assay: Cytotoxicity against human SK-MEL-5 cells assessed as cell growth at 1 uM after 48 hrs by sulforhodamine B assay relative to control; details: SK-MEL-5, 48 h, read-out: Activity
UACC-257 = assay: Cytotoxicity against human UACC257 cells assessed as cell growth at 0.1 uM after 48 hrs by sulforhodamine B assay relative to control; details: UACC-257, 48 h, read-out: Activity
HCT-15 = assay: Cytotoxicity against human HCT15 cells assessed as cell growth at 0.1 uM after 48 hrs by sulforhodamine B assay relative to control; details: HCT-15, 48 h, read-out: Activity
NCI-H226 [8] = assay: Cytotoxicity against human NCI-H226 cells assessed as cell growth at 10 uM after 48 hrs by sulforhodamine B assay relative to control; details: NCI-H226, 48 h, read-out: Activity
SF-539 = assay: Cytotoxicity against human SF539 cells assessed as growth inhibition after 48 hrs by sulforhodamine B assay; details: SF-539, 48 h
HL-60(TB) = assay: Cytotoxicity against human HL-60(TB) cells assessed as growth inhibition after 48 hrs by sulforhodamine B assay; details: HL-60, 48 h
NCI-H226 [9] = assay: Cytotoxicity against human NCI-H226 cells assessed as cell growth at 100 uM after 48 hrs by sulforhodamine B assay relative to control; details: NCI-H226, 48 h, read-out: Activity
SF-268 = assay: Cytotoxicity against human SF268 cells assessed as cell growth at 0.01 uM after 48 hrs by sulforhodamine B assay relative to control; details: SF-268, 48 h, read-out: Activity
A549 = assay: Cytotoxicity against human A549/ATCC cells assessed as cell growth at 0.01 uM after 48 hrs by sulforhodamine B assay relative to control; details: A549, 48 h, read-out: Activity
DU-145 = assay: Cytotoxicity against human DU145 cells assessed as cell growth at 0.01 uM after 48 hrs by sulforhodamine B assay relative to control; details: DU-145, 48 h, read-out: Activity
SK-MEL-28 = assay: Cytotoxicity against human SK-MEL-28 cells assessed as cell growth at 1 uM after 48 hrs by sulforhodamine B assay relative to control; details: SK-MEL-28, 48 h, read-out: Activity
ACHN = assay: Cytotoxicity against human ACHN cells assessed as cell growth at 0.1 uM after 48 hrs by sulforhodamine B assay relative to control; details: read-out: Activity
UO-31 = assay: Cytotoxicity against human UO31 cells assessed as cell growth at 100 uM after 48 hrs by sulforhodamine B assay relative to control; details: UO-31, 48 h, read-out: Activity
NCI-H460 = assay: Cytotoxicity against human NCI-H460 cells assessed as cell growth at 1 uM after 48 hrs by sulforhodamine B assay relative to control; details: NCI-H460, 48 h, read-out: Activity
A498 [10] = assay: Cytotoxicity against human A498 cells assessed as cell growth at 0.01 uM after 48 hrs by sulforhodamine B assay relative to control; details: A498, 48 h, read-out: Activity
A498 [11] = assay: Cytotoxicity against human A498 cells assessed as cell growth at 1 uM after 48 hrs by sulforhodamine B assay relative to control; details: A498, 48 h, read-out: Activity
CCRF-CEM = assay: Cytotoxicity against human CCRF-CEM cells assessed as cell growth at 10 uM after 48 hrs by sulforhodamine B assay relative to control; details: read-out: Activity
786-0 = assay: Cytotoxicity against human 786-0 cells assessed as cell growth at 0.1 uM after 48 hrs by sulforhodamine B assay relative to control; details: 786-0, 48 h, read-out: Activity

COc1cc2c(cc1OC)C(=O)/C(=C/c1cc(-c3ccc4c(c3)OCO4)n[nH]1)C2
growth at 0.1 µM (NCI-H522 [1]): 89%
growth at 100 µM (PC-3): -79%
growth at 0.1 µM (NCI-H226 [2]): 83%
growth at 0.01 µM (MDA-MB-435 [3]): 102%
growth at 0.01 µM (T47D): 92%
growth at 0.01 µM (NCI-H322M): 102%
GI50 (KM12): 1.29 µM
LC50 (KM12): 5.75 µM
TGI (KM12): 2.73 µM
growth at 0.01 µM (K562): 97%
GI50 (UACC-62): 1.63 µM
LC50 (UACC-62): 5.66 µM
TGI (UACC-62): 3.04 µM
growth at 0.01 µM (TK-10 [4]): 88%
growth at 1 µM (MDA-MB-435 [5]): 93%
growth at 10 µM (Malme-3M): -70%
GI50 (OVCAR-3): 1.41 µM
LC50 (OVCAR-3): 5.58 µM
TGI (OVCAR-3): 2.8 µM
GI50 (M14): 1.82 µM
LC50 (concentration killing 50% of cells) (M14): 6.34 µM
TGI (M14): 3.4 µM
growth at 0.01 µM (OVCAR-8): 98%
growth at 10 µM (NCI-H522 [6]): -80%
GI50 (TK-10 [7]): 1.89 µM
LC50 (TK-10 [7]): 5.96 µM
TGI (TK-10 [7]): 3.36 µM
growth at 1 µM (SK-MEL-5): 92%
growth at 0.1 µM (UACC-257): 94%
growth at 0.1 µM (HCT-15): 93%
growth at 10 µM (NCI-H226 [8]): -72%
GI50 (SF-539): 1.27 µM
LC50 (concentration killing 50% of cells) (SF-539): 5.22 µM
TGI (SF-539): 2.57 µM
GI50 (HL-60(TB)): 2.07 µM
LC50 (HL-60(TB)): > 100 µM
TGI (HL-60(TB)): 5.59 µM
growth at 100 µM (NCI-H226 [9]): -46%
growth at 0.01 µM (SF-268): 95%
growth at 0.01 µM (A549): 98%
growth at 0.01 µM (DU-145): 102%
growth at 1 µM (SK-MEL-28): 105%
growth at 0.1 µM (ACHN): 100%
growth at 100 µM (UO-31): -95%
growth at 1 µM (NCI-H460): 82%
growth at 0.01 µM (A498 [10]): 80%
growth at 1 µM (A498 [11]): 69%
growth at 10 µM (CCRF-CEM): -44%
growth at 0.1 µM (786-0): 98%

COc1ccc(-c2cc(/C=C/C(=O)c3cc(OC)c(OC)c(OC)c3)[nH]n2)cc1OC
growth at 0.1 µM (NCI-H522 [1]): 86%
growth at 100 µM (PC-3): -74%
growth at 0.1 µM (NCI-H226 [2]): 90%
growth at 0.01 µM (MDA-MB-435 [3]): 98%
growth at 0.01 µM (T47D): 91%
growth at 0.01 µM (NCI-H322M): 93%
GI50 (KM12): 0.78 µM
LC50 (KM12): 5.68 µM
TGI (KM12): 2.27 µM
growth at 0.01 µM (K562): 100%
GI50 (UACC-62): 1.79 µM
LC50 (UACC-62): 8.39 µM
TGI (UACC-62): 3.88 µM
growth at 0.01 µM (TK-10 [4]): 93%
growth at 1 µM (MDA-MB-435 [5]): 85%
growth at 10 µM (Malme-3M): -25%
GI50 (OVCAR-3): 1.59 µM
LC50 (OVCAR-3): 6.23 µM
TGI (OVCAR-3): 3.15 µM
GI50 (M14): 1.8 µM
LC50 (concentration killing 50% of cells) (M14): 7.54 µM
TGI (M14): 3.69 µM
growth at 0.01 µM (OVCAR-8): 100%
growth at 10 µM (NCI-H522 [6]): -94%
GI50 (TK-10 [7]): 3.27 µM
LC50 (TK-10 [7]): 36.9 µM
TGI (TK-10 [7]): 11.8 µM
growth at 1 µM (SK-MEL-5): 87%
growth at 0.1 µM (UACC-257): 97%
growth at 0.1 µM (HCT-15): 90%
growth at 10 µM (NCI-H226 [8]): -8%
GI50 (SF-539): 0.3 µM
LC50 (concentration killing 50% of cells) (SF-539): 4.57 µM
TGI (SF-539): 1.48 µM
GI50 (HL-60(TB)): 1.69 µM
LC50 (HL-60(TB)): > 100 µM
TGI (HL-60(TB)): 14.8 µM
growth at 100 µM (NCI-H226 [9]): -43%
growth at 0.01 µM (SF-268): 99%
growth at 0.01 µM (A549): 101%
growth at 0.01 µM (DU-145): 108%
growth at 1 µM (SK-MEL-28): 89%
growth at 0.1 µM (ACHN): 91%
growth at 100 µM (UO-31): -93%
growth at 1 µM (NCI-H460): 52%
growth at 0.01 µM (A498 [10]): 99%
growth at 1 µM (A498 [11]): 65%
growth at 10 µM (CCRF-CEM): -15%
growth at 0.1 µM (786-0): 91%
